From PubChem BioAssay (NCI)
“And” between values parts separate entries of the source, which are not always exact repeats. Identical values can stand only once.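 Cells were grown in 96-well plates and exposed to each compound for 48 hours at five concentrations; endpoints were interpolated linearly between bracketing concentrations, or set to the highest concentration if not reached. The concentration for 50% growth inhibition is given as GI50. At the TGI there is no net growth.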

Columns and labels:
Assay in all cases: NCI anticancer screen, dose series, 48 h
ACHN renal = test system: ACHN renal
EKVX NSCLC = test system: EKVX NSCLC
HCC-2998 colon = test system: HCC-2998 colon
HCT-15 colon = test system: HCT-15 colon
LOX IMVI melanoma = test system: LOX IMVI melanoma
MDA-MB-435 = test system: MDA-MB-435
OVCAR-8 ovarian = test system: OVCAR-8 ovarian
SF-539 CNS = test system: SF-539 CNS
SW-620 colon = test system: SW-620 colon
UO-31 renal = test system: UO-31 renal

## Cc1cc(NC(=O)NCc2ccc(N3C(N)=NC(N)=NC3(C)C)cc2)ccc1S(=O)(=O)F
ACHN renal
  GI50: 46200 nM
  TGI: > 100000 nM
EKVX NSCLC
  GI50: 13800 nM
  TGI: > 100000 nM
HCC-2998 colon
  GI50: 1960 nM
  TGI: > 100000 nM
HCT-15 colon
  GI50: 11200 nM
  TGI: > 100000 nM
LOX IMVI melanoma
  GI50: 824 nM
  TGI: > 100000 nM
MDA-MB-435
  GI50: 456 nM
  TGI: > 100000 nM
OVCAR-8 ovarian
  GI50: 6760 nM
  TGI: > 100000 nM
SF-539 CNS
  GI50: 2380 nM
  TGI: > 69200 nM
SW-620 colon
  GI50: 491 nM
  TGI: > 100000 nM
UO-31 renal
  GI50: > 100000 nM
  TGI: > 100000 nM

## CC(C)=C[C@@H]1C[C@H](C)[C@H]2CC[C@H](C)c3c(O)c(OC4OC(C)C(O)C(O)C4O)c(C)c1c32 (some centres undefined)
ACHN renal
  GI50: 14100 nM
  TGI: 27100 nM
EKVX NSCLC
  GI50: 19300 nM
  TGI: 34200 nM
HCC-2998 colon
  GI50: 734 nM
  TGI: 3970 nM
HCT-15 colon
  GI50: 14500 nM
  TGI: 27600 nM
LOX IMVI melanoma
  GI50: 11800 nM
  TGI: 24400 nM
MDA-MB-435
  GI50: 13600 nM
  TGI: 27200 nM
OVCAR-8 ovarian
  GI50: 14600 nM
  TGI: 28000 nM
SF-539 CNS
  GI50: 17900 nM
  TGI: 33000 nM
SW-620 colon
  GI50: 4660 nM
  TGI: 16300 nM
UO-31 renal
  GI50: 14600 nM
  TGI: 27800 nM

## NNc1c(C(N)=O)c2c(N)ncnc2n1C1OC(CO)C(O)C1O (centres undefined)
ACHN renal
  GI50: 16.7 nM
  TGI: 101 nM and 499 nM
EKVX NSCLC
  GI50: 208 nM
  TGI: 841 nM and 4360 nM
HCC-2998 colon
  GI50: < 17.6 nM and 16.5 nM
  TGI: 46.2 nM and 69.1 nM
HCT-15 colon
  GI50: 29.2 nM
  TGI: 1500 nM and 3040 nM
LOX IMVI melanoma
  GI50: 34.9 nM
  TGI: 130 nM and 1200 nM
MDA-MB-435
  GI50: 34.6 nM and 48.3 nM
  TGI: 148 nM and 265 nM
OVCAR-8 ovarian
  GI50: 17.8 nM and 34.3 nM
  TGI: 11500 nM and 3510 nM
SF-539 CNS
  GI50: 52.9 nM and 71.8 nM
  TGI: 1150 nM and 273 nM
SW-620 colon
  GI50: < 12.4 nM
  TGI: 992 nM and 241 nM
UO-31 renal
  GI50: < 14.3 nM and 24.6 nM
  TGI: 95.9 nM and 454 nM

## CC[C@H](C)[C@H](NC(=O)C12C3C4C1C1C2C3C41NC)C(=O)N(C)[C@H](C[C@@H](OC(C)=O)c1nc(C(=O)N[C@@H](Cc2ccccc2)C[C@H](C)C(=O)OC)cs1)C(C)C (some centres undefined)
ACHN renal
  GI50: 1210 nM
  TGI: > 14300 nM
EKVX NSCLC
  GI50: 1670 nM
  TGI: > 14300 nM
HCC-2998 colon
  GI50: 369 nM
  TGI: > 14300 nM
HCT-15 colon
  GI50: 1270 nM
  TGI: > 14300 nM
LOX IMVI melanoma
  GI50: 493 nM
  TGI: > 14300 nM
MDA-MB-435
  GI50: 48.9 nM
  TGI: 377 nM
OVCAR-8 ovarian
  GI50: 717 nM
  TGI: > 14300 nM
SF-539 CNS
  GI50: 546 nM
  TGI: > 6080 nM
SW-620 colon
  GI50: 459 nM
  TGI: > 14300 nM
UO-31 renal
  GI50: 4160 nM
  TGI: > 14300 nM

## COc1cccc(/C=C2\N=C(c3ccccc3)OC2=O)c1
ACHN renal
  TGI: > 100000 nM
EKVX NSCLC
  TGI: > 100000 nM
HCC-2998 colon
  TGI: > 100000 nM
HCT-15 colon
  TGI: > 100000 nM
LOX IMVI melanoma
  TGI: 66800 nM
MDA-MB-435
  TGI: > 100000 nM
OVCAR-8 ovarian
  TGI: > 100000 nM
SF-539 CNS
  TGI: > 100000 nM
SW-620 colon
  TGI: > 100000 nM
UO-31 renal
  TGI: > 100000 nM

## Nc1ccc(CC[C@H]2CCC/C=C/[C@@H]3C[C@H](O)C[C@H]3[C@H](O)/C=C/C(=O)O2)cc1
ACHN renal
  GI50: 41.3 nM
  TGI: > 100000 nM
EKVX NSCLC
  GI50: 37.4 nM
  TGI: 2490 nM
HCC-2998 colon
  GI50: 26.6 nM
HCT-15 colon
  GI50: 45.5 nM
  TGI: 16700 nM
LOX IMVI melanoma
  GI50: 23.1 nM
  TGI: 56.7 nM
MDA-MB-435
  GI50: 38.8 nM
  TGI: 25200 nM
OVCAR-8 ovarian
  GI50: 40.7 nM
  TGI: > 100000 nM
SF-539 CNS
  GI50: 56.2 nM
  TGI: > 100000 nM
SW-620 colon
  GI50: 32.9 nM
  TGI: 203 nM
UO-31 renal
  GI50: 27.6 nM
  TGI: 2340 nM
